Results on 14 molecules are retold here after US4782057A, “Benzo[h]cinnoline compound, a method of preparing said compound and a pharmaceutical composition” (Yoshitomi Pharmaceutical Industries, Ltd., priority 1984, dated 1988).

Data set [1] addresses benzodiazepine receptor. Description: Displacement of tritiated diazepam from benzodiazepine receptor (crude synaptosomal membranes of rat cerebral cortex). As to conditions: tritiated diazepam 2 nM, 4° C., 20 minutes, Tris-HCl pH 7.4. It is filed as binding, male Wistar rats. The method, then: A displacement ability for benzodiazepine receptor is shown as follows:
A specific binding for benzodiazepine receptor was determined according to the methods described in European Journal of Pharmacology, vol. 51, p. 129 (1978) and Life Science, vol. 20, p. 1201 (1977).
In brief, the crude synaptosomal membranes were prepared from the cerebral cortex of 9 to 10 week-old male Wistar rats and were suspended in Tris-HCl buffer (pH 7.4). Various concentrations of test compounds and tritiated diazepam (final concentration: 2 nM) were incubated at 4° C. for 20 minutes. Then the suspension was filtered through Whatman GF/B glass fiber filters. Radioactivity of tritiated diazepam on the filters was measured by liquid scintillation spectrometry. Specific binding was defined as the difference in the amount of radioactivity bound in the absence and presence of 1.0×10^-6 M unlabeled diazepam.
According to the above experimental method, the affinity of the compounds of the present invention is evaluated as an ability to displace tritiated diazepam from the binding site, and is represented as Ki value.

The subject of data set [2] is mice. As to the kind of experiment: Acute toxicity in mice. Format: in vivo. An excerpt: The compound of Example 13 was orally or intraperitoneally administered to mice.

pKi: −log10 of the molar value.

In data set [1], `COc1ccc(N2N=C3c4cc(C)ccc4CCC3CC2=O)cc1` (stereo not shown) [Example 13, 2-(4-Methoxyphenyl)-9-methyl-4,4a,5,6-tetrahydrobenzo[h]cinnolin-3(2H)-one] showed a pKi of 8.18. For the same molecule, the “survival, acute toxicity” value in data set [2] (intraperitoneal dose of 250 mg/kg) and in data set [2] (oral dose of 1000 mg/kg) was “All mice survived” in each case.
For the molecule `O=c1cc2c(nn1-c1ccccc1)-c1cc(F)ccc1CC2` [Example 30, 9-Fluoro-2-phenyl-5,6-dihydrobenzo[h]cinnolin-3(2H)-one], in data set [1], the pKi was 6.66.
Still for that read-out and setting: to `O=c1cc2c(nn1-c1ccccc1)-c1ccccc1CC2` [Example 3, 2-phenyl-5,6-dihydrobenzo[h]cinnolin-3(2H)-one] belongs 6.89; to `O=c1cc2c(nn1-c1ccccc1)-c1cc(Cl)ccc1CC2` [Example 2, 9-chloro-2-phenyl-5,6-dihydrobenzo[h]cinnolin-3(2H)-one], 6.72.
Same read-out and setting: to `Cc1ccc(-n2nc3c(cc2=O)CCc2ccc(Cl)cc2-3)cc1` [Example 15, 9-Chloro-2-(4-methylphenyl)-5,6-dihydrobenzo[h]cinnolin-3(2H)-one] belongs 7.55; to `Cc1ccc(N2N=C3c4cc(C)ccc4CCC3CC2=O)cc1` (stereo not shown) [Example 11, 9-Methyl-2-(4-methylphenyl)-4,4a,5,6-tetrahydrobenzo[h]cinnolin-3(2H)-one], 7.80.
Still for that read-out and setting: the value for `Cc1ccc2c(c1)C1=NN(c3ccc(Cl)cc3)C(=O)CC1CC2` (stereo not shown) [Example 12, 2-(4-Chlorophenyl)-9-methyl-4,4a,5,6-tetrahydrobenzo[h]cinnolin-3(2H)-one] was 7.59.
With `O=c1cc2c(nn1-c1ccc(Cl)cc1)-c1cc(Cl)ccc1CC2` [Example 17, 9-Chloro-2-(4-chlorophenyl)-5,6-dihydrobenzo[h]cinnolin-3(2H)-one], the pKi in data set [1] was 7.33.
On the same count and under the same terms, the value for `O=C1CC2CCc3ccc(F)cc3C2=NN1c1ccc(Cl)cc1` (stereo not shown) [Example 20, 2-(4-Chlorophenyl)-9-fluoro-4,4a,5,6-tetrahydrobenzo[h]cinnolin-3(2H)-one] was 7.47; that for `Cc1ccc(N2N=C3c4cc(Cl)ccc4CCC3CC2=O)cc1` (stereo not shown) [Example 16, 9-Chloro-2-(4-methylphenyl)-4,4a,5,6-tetrahydrobenzo[h]cinnolin-3(2H)-one] was 7.85; that for `O=C1CC2CCc3ccc(Cl)cc3C2=NN1c1ccccc1` (stereo not shown) [Example 1, 9-chloro-2-phenyl-4,4a,5,6-tetrahydrobenzo[h]cinnolin-3(2H)-one] was 6.92.
Same read-out and setting: to `COc1ccc2c(c1)C1=NN(c3ccc(C)cc3)C(=O)CC1CC2` (stereo not shown) [Example 14, 9-Methoxy-2-(4-methylphenyl)-4,4a,5,6-tetrahydrobenzo[h]cinnolin-3(2H)-one] belongs 8.09; to `O=c1cc2c(nn1-c1ccc(Cl)cc1)-c1cc(F)ccc1CC2` [Example 19, 2-(4-Chlorophenyl)-9-fluoro-5,6-dihydrobenzo[h]cinnolin-3(2H)-one], 7.35; to `O=c1cc2c(nn1-c1ccc([N+](=O)[O-])cc1)-c1cc(Cl)ccc1CC2` [Example 18, 9-Chloro-2-(4-nitrophenyl)-5,6-dihydrobenzo[h]cinnolin-3(2H)-one], 7.05.
